According to paper PMC7725785, “TRIB3 promotes MYC-associated lymphoma development through suppression of UBE3B-mediated MYC degradation” (Nature Communications, 2020):

What was measured:
[1] = system: RNAPII; test: ChIP-seq of RNAPII occupancy in Raji cells; format: cell-based, human; settings: ChIP-seq with spike-in, result in words
Method: ChIP assays were performed according to the manufacturer’s protocol using a SimpleChIP® Plus Sonication Chromatin IP Kit (Cell Signaling Technology, Danvers, MA, USA, (#56383). Briefly, cells were fixated with 1% formaldehyde (Sigma Aldrich, F8775) for 8 min, incubated with glycine (50 mM final) for 10 min and washed three times with PBS. After cell lysis and chromatin extraction, chromatin was sonicated to 100–500 bp using a BioRuptor sonicator (Diagenode), followed by centrifugation at 16,000×g for 10 min at 4 °C. To control for experimental variation, our spike-in data were normalized to a spike-in control consisting of a small amount of chromatin from another species. Briefly, Baf3 cell lysates were sonicated exactly as described above and added at a 1:100 ratio of Raji cells to lysates. […] The Qubit® 3.0 A fluorometer was used for quantitation of the ChIP library. […]
The ChIP libraries were sequenced on Illumina HiSeq platform in 150 bp paired-end reads. After quality control, the clean reads were aligned to the human reference genome (Homo sapiens. GRCh38.87v2) with Bowtie v2.1.0. Unambiguously mapped reads were retained for subsequent generation of binding profiles, heatmaps and calling of peaks. […] Mapped reads were visualized using the Integrative Genomics Viewer (IGV). We next used the murine spike-in to quantitatively normalize different samples. […]

[2] = system: primary mouse BCL cells; test: Serial colony formation of primary mouse BCL cells from Myc^Eμ mice; format: cell-based; settings: result in words
Description: Mouse and human lymphoma cells formed colonies upon serum culture (P1). Single colonies of lymphoma cells were dispersed in methylcellulose-based medium MethoCul^TM M3630 (StemCell, 03630) or MethoCult™SF H4536 (StemCell, 04536). A representative plate was then washed and cells were resuspended and replated. After an additional 14 days, colonies were counted (P2).

[3] = system: MYC protein; test: MYC protein level by immunoblotting in Jurkat and Raji cells; format: cell-based, human; settings: 4 μM, result in words
Method: (§1) Co-IP experiments were performed as described previously. Briefly, cells were collected and lysed for 30 min on ice. Soluble lysates were incubated with the indicated antibodies at 4 °C overnight, followed by incubation with Protein A/G Plus-Agarose (Santa Cruz Biotechnology, TX, USA) at 4 °C for 2 h. Soluble lysates were incubated with the indicated Anti-Myc magnetic beads (Bimake.com, B26302), Anti-Flag Affinity Gel (Bimake.com, B23102) or Anti-HA Affinity Gel (Bimake.com, B23302) at 4 °C overnight. Immunocomplexes were separated from the beads and then boiled for 10 min. The precipitated proteins were subjected to SDS-PAGE and blotted with specific antibodies. For immunoblotting assays, proteins were extracted from cells, spleens, or lymphoma tissues using RIPA buffer (Cell Signaling Technology, MA, USA). A BCA Protein Assay Kit was used to determine protein concentrations. Protein extracts were separated by SDS-PAGE, transferred onto PVDF membranes, and subjected to immunoblot analysis. Western blot images were captured by a Tanon 5200 chemiluminescent imaging system (Tanon, Shanghai, […]). Human lymphoma and benign LN paraffin tissue microarrays were purchased from US Biomax (LM482a).

[4] = system: PTCL^T144 PDX; test: PDX model tumor growth and weight, PTCL T144; format: in vivo, human; settings: result in words
Method: (§2) Four 5-week-old male NSG mice were implanted subcutaneously with 200 μl of a 1:1 mixture of Matrigel® Basement Membrane Matrix High Concentration (Corning, 354230) and minced fresh tumor fragments resected from lymphoma patients. Approximately 3–4 weeks following implantation, the first-generation mice (G1) were killed, and tumor masses were isolated. The tumor cells were tested for human CD19 (BCL) or CD3 expression (T cell lymphoma), and the remaining tumor mass was cut into 3-mm^3 sections and passaged into 4–5 NSG mice as the second generation (G2). After stable passage of the third generation (G3), the tumor mass of the fourth generation (G4) was equally cut into 3-mm^3 pieces and then passaged subcutaneously into 30–50 NSG mice (100 μl of a 1:2 mixture of Matrigel and tumor tissue) for in vivo treatment (6–8 mice per group, dependent on the experimental drug treatment). During and after treatment with the vehicle control or the indicated agent, tumor burden was evaluated by measuring the tumor volume to determine the therapeutic efficacy in the PDX models. […]
(§3) To evaluate the survival rate, these mice were monitored for 8 months (Myc^Eμ mice). […] During the indicated treatments, tumor burden was evaluated by measuring the tumor volume to determine the therapeutic efficacy in the PDX models.

[5] = system: TLBL^T123 PDX; test: PDX model tumor growth and weight, T-LBL T123; format: in vivo, human; settings: result in words
Method: as §2, §3

[6] = system: TRIB3 with AKT, p62, COP1, and PML; test: Co-IP of TRIB3/AKT, TRIB3/p62, TRIB3/COP1, TRIB3/PML (off-target); format: cell-based; settings: result in words
Method: as §1

Sequence: HLYVSPWGGKRREQLKHKLEQLR [PCM4, fused peptide generated by linking CM4 to a cell-penetrating peptide]
- association of RNAPII with promoters [1]: globally reduced the association of RNAPII with promoters
- intrinsic clonogenicity of primary mouse BCL cells [2]: reduced the intrinsic clonogenicity
- MYC abundance [3]: reduced the MYC abundance
- growth and weights of tumors, combination of PCM4 and DOX ([4]; PDX T144 (high TRIB3 and MYC expression), PCM4 5 mg/kg and DOX 2 mg/kg): further decreased the growth and weights of tumors
- tumor growth of PDX ([4]; PDX T144, NSG mice, PCM4 5 mg/kg i.v. three times a week): inhibited the tumor growth
- growth and weights of tumors, combination of PCM4 and DOX ([5]; PDX T123 (high TRIB3 and MYC expression), PCM4 5 mg/kg and DOX 2 mg/kg): further decreased the growth and weights of tumors
- tumor growth of PDX ([5]; PDX T123, NSG mice, PCM4 5 mg/kg i.v. three times a week): inhibited the tumor growth
- off-target: interactions of TRIB3 with AKT, p62, COP1, and PML [6]: did not disturb the interactions of TRIB3 with these proteins
